Experimental data reported in patent US12240862B2, “Inhibitors of peptidylarginine deiminases” (Gilead Sciences, Inc., priority 2020, dated 2025).

What follows are compounds tested against T1, human PAD4 (Homo sapiens, UniProt Q9UM07) (assay: In vitro PAD4 BAEE biochemical assay). Details: human PAD4, BAEE substrate; 5 nM PAD4, 2 mM calcium chloride, 3 mM BAEE; geometric mean of multiple experiments.
T1 construct: human PAD4 (NM_012387), A2P663, was PCR amplified; His-SUMO (N, cleaved yes); made in house; host or cells: E. coli BL21(DE3)
Method in brief: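 Ammonia release from BAEE deimination monitored by o-phthalaldehyde amine coupling (1 h, 25 °C) after EDTA stop. Final conditions: 5 nM tag-free recombinant human PAD4 (E. coli), 2 mM CaCl2, 3 mM BAEE, pH 7.6 MOPS with DTT; 30 min compound preincubation, then 2 h reaction at 25 °C.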

T1 sequence (Q9UM07 2-663): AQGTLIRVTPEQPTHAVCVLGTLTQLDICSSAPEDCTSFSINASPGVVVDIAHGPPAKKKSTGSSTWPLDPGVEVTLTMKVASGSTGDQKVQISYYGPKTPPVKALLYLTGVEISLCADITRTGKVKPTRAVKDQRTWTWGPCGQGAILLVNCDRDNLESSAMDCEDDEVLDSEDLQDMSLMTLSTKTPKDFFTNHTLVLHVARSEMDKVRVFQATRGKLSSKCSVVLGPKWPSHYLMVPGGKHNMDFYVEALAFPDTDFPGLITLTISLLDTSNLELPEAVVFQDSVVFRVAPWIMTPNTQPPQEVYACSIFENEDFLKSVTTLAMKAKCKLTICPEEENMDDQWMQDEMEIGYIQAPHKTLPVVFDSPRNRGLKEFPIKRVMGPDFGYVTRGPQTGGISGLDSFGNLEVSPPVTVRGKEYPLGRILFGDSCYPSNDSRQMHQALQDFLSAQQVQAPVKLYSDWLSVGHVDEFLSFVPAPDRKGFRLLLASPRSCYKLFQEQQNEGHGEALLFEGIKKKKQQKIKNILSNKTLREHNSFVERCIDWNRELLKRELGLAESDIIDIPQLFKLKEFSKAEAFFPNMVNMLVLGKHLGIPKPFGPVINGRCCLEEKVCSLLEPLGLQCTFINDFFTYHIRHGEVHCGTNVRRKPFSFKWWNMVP

| SMILES | IC50 [nM] |
| --- | --- |
| COc1cc(C(=O)N2[C@@H]3CC[C@@H](N)[C@H]2CC3)cc2nc(-c3cc4ccc(N(C(F)F)S(C)(=O)=O)nc4n3CC3CC3)c(CC3CC3)n12 [Example 403, ~{N}-[2-[7-[(1~{R},2~{R}, 5~{R})-2-amino-8-azabicyclo[3.2.1]octane-8-carbonyl]-3-(cyclopropylmethyl)-5-methoxyimidazo [1,2-a]pyridin-2-yl]-1-(cyclopropylmethyl)pyrrolo [2,3-b]pyridin-6-yl]-~{N}-(difluoromethyl) methanesulfonamide] | 754 |
| CCc1c(-c2cc3ccc(N(C(F)F)S(C)(=O)=O)nc3n2CC2CC2)nc2cc(C(=O)N3CC[C@H](O)[C@H](N)C3)cc(OC)n12 [Example 404, ~{N}-[2-[7-[(3~{R},4~{S})-3-amino-4-hydroxypiperidine-1-carbonyl]-3-ethyl-5-methoxyimidazo[1,2-a]pyridin-2-yl]-1-(cyclopropylmethyl)pyrrolo [2,3-b]pyridin-6-yl]-~{N}-(difluoromethyl) methanesulfonamide] | 10600 |
| COc1cc(C(=O)N2C[C@H](N)CC[C@@H]2C)cc2nc(-c3cc4ccc(N(C(F)F)S(C)(=O)=O)nc4n3CC3CC3)c(CC3CC3)n12 [Example 405, ~{N}-[2-[7-[(2~{S},5~{R})-5-amino-2-methylpiperidine-1-carbonyl]-3-(cyclopropylmethyl)-5-methoxyimidazo[1,2-a]pyridin-2-yl]-1-(cyclopropylmethyl)pyrrolo [2,3-b]pyridin-6-yl]-~{N}-(difluoromethyl) methanesulfonamide] | 589 |
| CCc1c(-c2cc3ccc(N(C(F)F)S(C)(=O)=O)nc3n2CC2CC2)nc2cc(C(=O)N3C[C@H](N)CC[C@@H]3C)ccn12 [Example 406, ~{N}-[2-[7-[(2~{S},5~{R})-5-amino-2-methylpiperidine-1-carbonyl]-3-ethylimidazo [1,2-a]pyridin-2-yl]-1-(cyclopropylmethyl)pyrrolo [2,3-b]pyridin-6-yl]-~{N}-(difluoromethyl) methanesulfonamide] | 194 |
| COc1cc(C(=O)N2[C@@H]3CC[C@@H](N)[C@H]2CC3)cc2nc(-c3cc4ccc(N(C(F)F)S(C)(=O)=O)nc4n3CC3CC3)c(C)n12 [Example 407, ~{N}-[2-[7-[(1~{R},2~{R}, 5~{R})-2-amino-8-azabicyclo[3.2.1]octane-8-carbonyl]-5-methoxy-3-methylimidazo[1,2-a]pyridin-2-yl]-1-(cyclopropylmethyl)pyrrolo [2,3-b]pyridin-6-yl]-~{N}-(difluoromethyl) methanesulfonamide] | 129 |
| COc1cc(C(=O)N2[C@H]3CC[C@H](N)[C@@H]2CC3)cc2nc(-c3cc4ccc(N(C(F)F)S(C)(=O)=O)nc4n3CC3CC3)c(C)n12 [Example 408, ~{N}-[2-[7-[(1~{S},2~{S}, 5~{S})-2-amino-8-azabicyclo[3.2.1]octane-8-carbonyl]-5-methoxy-3-methylimidazo[1,2-a]pyridin-2-yl]-1-(cyclopropylmethyl)pyrrolo [2,3-b]pyridin-6-yl]-~{N}-(difluoromethyl) methanesulfonamide] | 3020 |
| C[C@H]1CC[C@@H](N)CN1C(=O)c1ccn2c(C(F)F)c(-c3cc4ccc(N(C(F)F)S(C)(=O)=O)nc4n3CC3CC3)nc2c1 [Example 409, ~{N}-[2-[7-[(2~{S},5~{R})-5-amino-2-methylpiperidine-1-carbonyl]-3-(difluoromethyl)imidazo [1,2-a]pyridin-2-yl]-1-(cyclopropylmethyl)pyrrolo [2,3-b]pyridin-6-yl]-~{N}-(difluoromethyl) methanesulfonamide] | 1170 |
| COc1cc(C(=O)N2[C@@H]3CC[C@@H](N)[C@H]2CC3)cc2nc(-c3cc4ccc(N(C(F)F)S(C)(=O)=O)nc4n3CC3CC3)c(C)n12 [Example 410, ~{N}-[2-[7-[(1~{R},2~{R}, 5~{R})-2-amino-8-azabicyclo[3.2.1]octane-8-carbonyl]-5-methoxy-3-methylimidazo[1,2-a]pyridin-2-yl]-1-(cyclopropylmethyl)pyrrolo [2,3-b]pyridin-6-yl]-~{N}-(difluoromethyl) methanesulfonamide] | 233 |
